Measured values: US10780074B2, “Compounds and uses thereof” (Sunovion Pharmaceuticals Inc., priority 2017, dated 2020)
Counter-ions that a name gives are not always drawn.

System: behaviors of compound-treated mice
Test: Neuropharmacological Assay (SmartCube)
Format: in vivo
Conditions: for minimal effective dose: Mus musculus, ip, 0.25 h, dose having 50% or more total activity in SmartCube, i.p., read-out: MED (minimal effective dose); for AD: ADHD (probability that activity matches class) / AG: analgesic (probability that activity matches class) / AX: anxiolytic (probability that activity matches class) / CE: cognitive enhancer (probability that activity matches class) / DP: anti-depressant (probability that activity matches class) / MS: mood stabilizer (probability that activity matches class) / PS: anti-psychotic (probability that activity matches class) / SD: sedative hypnotic (probability that activity matches class) / UN: uncharacterized CNS activity (probability that activity matches class): i.p. 15 min before behavioral test, most efficacious dose(s) of 3 doses
Excerpt: Neuropharmacological Assay (SmartCube™)
Neurosci. 2011 Sep. 9; 5:103 (doi: 10.3389/fnins.2011.00103) (“Roberds”). As reported in Roberds, because psychiatric diseases generally result from disorders of cell-cell communication or circuitry, intact systems are useful in detecting improvement in disease-relevant endpoints. These endpoints are typically behavioral in nature, often requiring human observation and interpretation. To facilitate testing of multiple compounds for behavioral effects relevant to psychiatric disease, PsychoGenics, Inc. (Tarrytown, N.Y., “PGI”) developed SmartCube™, an automated system in which behaviors of compound-treated mice are captured by digital video and analyzed with computer algorithms. (D. Brunner et al., Drug Discov. Today 2002, 7:S107-S112). PGI Analytical Systems uses data from SmartCube™ to compare the behavioral signature of a test compound to a database of behavioral signatures obtained using a large set of diverse reference compounds. (The composition of the database as well as validation of the method is further described in Roberds). In this way, the neuropharmacological effects of a test compound can be predicted by similarity to major classes of compounds, such as antipsychotics, anxiolytics and antidepressants.
The SmartCube™ system produces an activity signature indicating the probability that the activity of the test compound at the administered dose matches a given class of neuropharmacological agents. (See, e.g., Roberds, FIGS. 2 and 3). The test compound is simultaneously compared against multiple classes of agents; thus, a separate probability is generated for each behavioral effect measured (e.g., anxiolytic activity, analgesic activity, etc.). In the table below, these probabilities are reported for each behavioral effect measured as follows:
Provided compounds were dissolved in a mixture of Pharmasolve™ (N-methyl-2-pyrrolidone), polyethylene glycol and propylene glycol, and were injected i.p. 15 min. before the behavioral test. For each compound, injections were administered at 3 different doses. For each behavioral effect measured, results for the most efficacious dose(s) are presented. In the table below, DP: anti-depressant; AX: anxiolytic; SD: sedative hypnotic; PS: anti-psychotic; MS: mood stabilizer; AD: ADHD; CE: cognitive enhancer; AG: analgesic; UN: uncharacterized CNS activity.
The potency of many of the compounds in the table was also determined in the SmartCube™ system. Test compounds were routinely examined at dose levels of 0.3, 1, 3 10 and 30 mg per kg (mpk), although the dose range was increased or decreased if necessary to obtain a full dose response curve. A compound's minimal effective dose (MED) is a measure of the compounds potency. The MED was defined as the dose (in mpk) having 50% or more total activity in SmartCube.

| Compound | minimal effective dose [mg/kg] | AD: ADHD (probability that activity matches class) | AG: analgesic (probability that activity matches class) | AX: anxiolytic (probability that activity matches class) | CE: cognitive enhancer (probability that activity matches class) | DP: anti-depressant (probability that activity matches class) | MS: mood stabilizer (probability that activity matches class) | PS: anti-psychotic (probability that activity matches class) | SD: sedative hypnotic (probability that activity matches class) | UN: uncharacterized CNS activity (probability that activity matches class) |
| --- | --- | --- | --- | --- | --- | --- | --- | --- | --- | --- |
| CNC[C@H]1OCCc2c(-c3ccccn3)cccc21 (single isomer, unassigned) [Compound 44, hydrochloride salt] | ≤ 3 | + (LOQ ≤ + <5%) | ++ (5% ≤ ++ <25%) | ++ (5% ≤ ++ <25%) | + (LOQ ≤ + <5%) | ++++ (50% ≤ ++++) | + (LOQ ≤ + <5%) | + (LOQ ≤ + <5%) | + (LOQ ≤ + <5%) | + (LOQ ≤ + <5%) |
| NC[C@@H]1OCCc2c(-c3ccccn3)cccc21 (single isomer, unassigned) [Compound 45, hydrochloride] | 10 to 30 | + (LOQ ≤ + <5%) | ++ (5% ≤ ++ <25%) | ++ (5% ≤ ++ <25%) | + (LOQ ≤ + <5%) | ++ (5% ≤ ++ <25%) | + (LOQ ≤ + <5%) | + (LOQ ≤ + <5%) | + (LOQ ≤ + <5%) | +++ (25% ≤ +++ <50%) |
| NC[C@H]1OCCc2c(-c3ccccn3)cccc21 (single isomer, unassigned) [Compound 46, hydrochloride] | 10 to 30 | + (LOQ ≤ + <5%) | + (LOQ ≤ + <5%) | ++ (5% ≤ ++ <25%) | + (LOQ ≤ + <5%) | ++ (5% ≤ ++ <25%) | + (LOQ ≤ + <5%) | + (LOQ ≤ + <5%) | + (LOQ ≤ + <5%) | ++++ (50% ≤ ++++) |
| CCNC[C@@H]1OCCc2c(-c3ccncc3)cccc21 (single isomer, unassigned) [Compound 66, hydrochloride salt] | 10 to 30 | + (LOQ ≤ + <5%) | + (LOQ ≤ + <5%) | ++ (5% ≤ ++ <25%) | + (LOQ ≤ + <5%) | ++ (5% ≤ ++ <25%) | + (LOQ ≤ + <5%) | + (LOQ ≤ + <5%) | + (LOQ ≤ + <5%) | + (LOQ ≤ + <5%) |
| CCNC[C@H]1OCCc2c(-c3ccncc3)cccc21 (single isomer, unassigned) [Compound 67, hydrochloride salt] | ≤ 3 | + (LOQ ≤ + <5%) | + (LOQ ≤ + <5%) | + (LOQ ≤ + <5%) | + (LOQ ≤ + <5%) | ++++ (50% ≤ ++++) | + (LOQ ≤ + <5%) | + (LOQ ≤ + <5%) | + (LOQ ≤ + <5%) | ++ (5% ≤ ++ <25%) |
| CNC[C@@H]1OCCc2c(-c3cncs3)cccc21 (single isomer, unassigned) [Compound 68, hydrochloride salt] | 3 to 10 | ++ (5% ≤ ++ <25%) | + (LOQ ≤ + <5%) | ++ (5% ≤ ++ <25%) | + (LOQ ≤ + <5%) | ++++ (50% ≤ ++++) | + (LOQ ≤ + <5%) | + (LOQ ≤ + <5%) | + (LOQ ≤ + <5%) | ++ (5% ≤ ++ <25%) |
| CNC[C@H]1OCCc2c(-c3cncs3)cccc21 (single isomer, unassigned) [Compound 69, hydrochloride salt] | ≤ 3 | + (LOQ ≤ + <5%) | + (LOQ ≤ + <5%) | ++ (5% ≤ ++ <25%) | + (LOQ ≤ + <5%) | ++++ (50% ≤ ++++) | + (LOQ ≤ + <5%) | + (LOQ ≤ + <5%) | ++ (5% ≤ ++ <25%) | + (LOQ ≤ + <5%) |
| NC[C@@H]1OCCc2c(-c3cncs3)cccc21 (single isomer, unassigned) [Compound 70, hydrochloride salt] | 3 to 10 | ++ (5% ≤ ++ <25%) | + (LOQ ≤ + <5%) | ++ (5% ≤ ++ <25%) | + (LOQ ≤ + <5%) | ++++ (50% ≤ ++++) | + (LOQ ≤ + <5%) | + (LOQ ≤ + <5%) | + (LOQ ≤ + <5%) | +++ (25% ≤ +++ <50%) |
| NC[C@H]1OCCc2c(-c3cncs3)cccc21 (single isomer, unassigned) [Compound 71, hydrochloride salt] | ≤ 3 | +++ (25% ≤ +++ <50%) | + (LOQ ≤ + <5%) | ++ (5% ≤ ++ <25%) | + (LOQ ≤ + <5%) | ++ (5% ≤ ++ <25%) | + (LOQ ≤ + <5%) | + (LOQ ≤ + <5%) | ++ (5% ≤ ++ <25%) | ++++ (50% ≤ ++++) |
| CNC[C@@H]1OCCc2c(-c3ccncn3)cccc21 (single isomer, unassigned) [Compound 72, hydrochloride salt] | > 30 | + (LOQ ≤ + <5%) | + (LOQ ≤ + <5%) | + (LOQ ≤ + <5%) | + (LOQ ≤ + <5%) | + (LOQ ≤ + <5%) | + (LOQ ≤ + <5%) | + (LOQ ≤ + <5%) | + (LOQ ≤ + <5%) | + (LOQ ≤ + <5%) |
| CNC[C@H]1OCCc2c(-c3ccncn3)cccc21 (single isomer, unassigned) [Compound 73, hydrochloride salt] | 3 to 10 | + (LOQ ≤ + <5%) | + (LOQ ≤ + <5%) | ++ (5% ≤ ++ <25%) | + (LOQ ≤ + <5%) | ++++ (50% ≤ ++++) | + (LOQ ≤ + <5%) | + (LOQ ≤ + <5%) | + (LOQ ≤ + <5%) | + (LOQ ≤ + <5%) |
